From US5279836A, “Topical use of calcitonin for the preparation of medications in senile idiopathic cataract and a pharmaeutical composition thereof” (Mediator S.R.L., priority 1991, dated 1994)
Positions of bridges follow the written chain, without caps; N, C: chain ends. Non-standard residues stand in square brackets, D forms with d. Residues, ends and D or L forms follow the SMILES beside them. Asu = N[C@@H](CCCCCC(=O)O)C(=O)O

What was measured:
corneal epithelium = experiment: Systemic and local (corneal) tolerance after topical instillation of the collyrium; assay type: in vivo, rabbit; details: rabbits, topical collyrium 5 U.MRC; 2% fluorescein test
Method: After the Keratocentesis a new test of the corneal surface integrity was performed with instillation of 2% fluorescein and washing with physiological solution.

sheep lens = sheep lens in vitro, incubation; cited from earlier work

Molecule | systemic phenomena of drug intolerance and local toxic phenomena (corneal epithelium) (corneal epithelium) | calcium levels in the lens (sheep lens)
CC(C)C[C@H](NC(=O)[C@H](CCCCN)NC(=O)CNC(=O)[C@H](CC(C)C)NC(=O)[C@@H](NC(=O)[C@@H]1CCCCCC(=O)N[C@@H](CO)C(=O)N[C@@H](CC(N)=O)C(=O)N[C@@H](CC(C)C)C(=O)N[C@@H](CO)C(=O)N[C@@H]([C@@H](C)O)C(=O)N1)C(C)C)C(=O)N[C@@H](CO)C(=O)N[C@@H](CCC(N)=O)C(=O)N[C@@H](CCC(=O)O)C(=O)N[C@@H](CC(C)C)C(=O)N[C@@H](Cc1c[nH]cn1)C(=O)N[C@@H](CCCCN)C(=O)N[C@@H](CC(C)C)C(=O)N[C@@H](CCC(N)=O)C(=O)N[C@H](C(=O)N[C@@H](Cc1ccc(O)cc1)C(=O)N1CCC[C@H]1C(=O)N[C@@H](CCCNC(=N)N)C(=O)N[C@H](C(=O)N[C@@H](CC(=O)O)C(=O)N[C@H](C(=O)NCC(=O)N[C@@H](C)C(=O)NCC(=O)N[C@H](C(=O)N1CCC[C@H]1C(N)=O)[C@@H](C)O)C(C)C)[C@@H](C)O)[C@@H](C)O [elcatonin] (SNLST[Asu]VLGKLSQELHKLQTYPRTDVGAGTP-NH2; lactam N-6) | No animal showed systemic phenomena of the drug intolerance nor local toxic phenomena | –
calcitonin | – | raises the calcium levels proportionally with the incubation times
